Test results taken from patent publication US11000033B2, “Ketone or oxime compound, and herbicide” (NISSAN CHEMICAL CORPORATION, priority 2014, dated 2021).

Experiments:
Type in all cases: in vivo
[1] = system: directly sowed rice plant; experiment: Test Example 3: effect on crop by foliage application, Wagner pot (symbol b); settings: application herbicide amount 320 g/ha
Summary of the method: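 Alluvial soil in a 1/10000-are Wagner pot was flooded to a water depth of 0.1–0.5 cm. Echinochloa crus-galli var. crus-galli, Leptochloa chinensis, Cyperus difformis and rice were sown into it and grown in a greenhouse at 25–30 °C.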

[2] = system: Monochoria vaginalis; experiment: Test Example 2: herbicidal activity, application during weed generation in submerged conditions (symbol C); settings: Table 23; application herbicide amount 320 g/ha; grade 0-5 by criteria of Test Example 1
Summary of the method: (§1)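 Seeds sown in flooded alluvial soil (4 cm water) were grown in a 25-30° C greenhouse. At the one- to two-leaf stage, diluted emulsion of compound was applied to the water surface at a predetermined rate. Effect was scored 3 weeks later.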

[3] = system: Digitaria ciliaris; experiment: Test Example 5: herbicidal effect by foliage application, plastic box (symbol F); settings: 320 g/ha, 3 weeks after application
Summary of the method: (§2)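 Seeds were sown in sterilized diluvial soil, covered with about 1.5 cm of soil and grown 14 days in a greenhouse at 25° C. to 30° C. An emulsifiable formulation diluted in water to a set rate was sprayed over foliage, and injury was scored 3 weeks later.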

[4] = system: Stellaria media; experiment: Test Example 5: herbicidal effect by foliage application, plastic box (symbol P); settings: 320 g/ha, 3 weeks after application
Summary of the method: as §2

[5] = system: Abutilon theophrasti; experiment: Test Example 4: herbicidal effect by soil treatment (symbol M)
Summary of the method: (§3)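 Seeds were sown in sterilized diluvial soil, covered with about 1.5 cm of soil, and the soil surface was sprayed with a water-diluted emulsion of the compound at a predetermined rate. Plants grew in a greenhouse at 25° C. to 30° C.; effects were scored visually 3 weeks after application.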

[6] = system: rapeseed; experiment: Test Example 5: effect on crop by foliage application, plastic box (symbol g); settings: 320 g/ha, 3 weeks after application
Summary of the method: (§4)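 Crop and weed seeds sown in spots in sterilized diluvial soil in plastic boxes and covered with about 1.5 cm soil. Plants raised in a greenhouse at 25° C. to 30° C. for foliar application.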

[7] = system: Echinochloa oryzacola Vasing.; experiment: Test Example 1: herbicidal activity, application before weed generation in submerged conditions (symbol A); settings: application herbicide amount 320 g/ha
Summary of the method: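 Weeds are sown into submerged alluvial soil alongside transplanted 2.5-leaf rice, and the compound, as an emulsion diluted to a set rate, is applied onto the water before emergence. Rating on the 0–5 herbicidal-ratio scale follows 3 weeks of greenhouse growth at 25–30 °C.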

[8] = system: Echinochloa oryzacola Vasing.; experiment: Test Example 2: herbicidal activity, application during weed generation in submerged conditions (symbol A); settings: Table 23; application herbicide amount 320 g/ha; grade 0-5 by criteria of Test Example 1
Summary of the method: as §1

[9] = system: Cyperus difformis; experiment: Test Example 3: herbicidal effect by foliage application, Wagner pot (symbol E); settings: application herbicide amount 320 g/ha
Summary of the method: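 Plants sown in submerged alluvial soil (water depth 0.1–0.5 cm) in a 25–30 °C greenhouse and grown 14 days. An emulsion of the compound diluted in water to a set herbicide amount was sprayed uniformly on foliage. Effect on each plant scored 3 weeks after application.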

[10] = system: Apera spica-venti; experiment: Test Example 5: herbicidal effect by foliage application, plastic box (symbol L); settings: 320 g/ha, 3 weeks after application
Summary of the method: as §2

[11] = system: rice plant; experiment: Test Example 5: effect on crop by foliage application, plastic box (symbol b); settings: 320 g/ha, 3 weeks after application
Summary of the method: as §4

[12] = system: Stellaria media; experiment: Test Example 4: herbicidal effect by soil treatment (symbol P)
Summary of the method: as §3

[13] = system: Avena fatua; experiment: Test Example 5: herbicidal effect by foliage application, plastic box (symbol I); settings: 320 g/ha, 3 weeks after application
Summary of the method: as §2

[14] = system: Echinochloa crus-galli var. crus-galli; experiment: Test Example 4: herbicidal effect by soil treatment (symbol H)
Summary of the method: as §3

[15] = application herbicide amount 320 g/ha

Row | SMILES | effect on crop b (directly sowed rice plant), grade 0-5 [1] | Herbicidal effect grade, C: Monochoria vaginalis [2] | Herbicidal effect grade, A: Echinochloa oryzacola Vasing. [7] | Herbicidal effect grade, A: Echinochloa oryzacola Vasing. [8] | herbicidal effect on E, grade 0-5 [9] | F: Digitaria ciliaris, herbicidal effect grade [3] | P: Stellaria media, herbicidal effect grade [4] | M: Abutilon theophrasti, herbicidal effect grade [5, 15] | g: rapeseed, effect on crop grade [6] | L: Apera spica-venti, herbicidal effect grade [10] | b: directly sowed rice plant, effect on crop grade [11] | P: Stellaria media, herbicidal effect grade [12, 15] | I: Avena fatua, herbicidal effect grade [13] | H: Echinochloa crus-galli var. crus-galli, herbicidal effect grade [14, 15] | further results
1 | C=CCN(CC=C)C(=O)OC1=C(c2c(C)cc(C)cc2C)C(=O)C(CC(C)=NOC)C1 (stereo not drawn) [1-153] | 5 (Herbicidal ratio of 90% or more (almost completely withered)) | 0 (Herbicidal ratio of 5% or lower (almost no effect)) | 5 (Herbicidal ratio of 90% or more (almost completely withered)) | 4 (Herbicidal ratio of 70% or higher and lower than 90%) | 4 (Herbicidal ratio of 70% or higher and lower than 90%) |  |  |  |  |  |  |  |  |  | F: Digitaria ciliaris, herbicidal effect (criteria 0-5) [3]: 5 (Herbicidal ratio of 90% or more (almost completely withered)); P: Stellaria media, herbicidal effect (criteria 0-5) [4]: 0 (Herbicidal ratio of 5% or lower (almost no effect)); M: Abutilon theophrasti, herbicidal effect grade ([5]; 320 g/ha): 0 (Herbicidal ratio of 5% or lower (almost no effect)); g: rapeseed, effect on crop (criteria 0-5) [6]: 4 (Herbicidal ratio of 70% or higher and lower than 90%); L: Apera spica-venti, herbicidal effect (criteria 0-5) [10]: 5 (Herbicidal ratio of 90% or more (almost completely withered)); b: directly sowed rice plant, effect on crop (criteria 0-5) [11]: 5 (Herbicidal ratio of 90% or more (almost completely withered)); P: Stellaria media, herbicidal effect grade ([12]; 320 g/ha): 0 (Herbicidal ratio of 5% or lower (almost no effect)); I: Avena fatua, herbicidal effect (criteria 0-5) [13]: 5 (Herbicidal ratio of 90% or more (almost completely withered)); H: Echinochloa crus-galli var. crus-galli, herbicidal effect grade ([14]; 320 g/ha): 0 (Herbicidal ratio of 5% or lower (almost no effect))
2 | Cc1cc(C)c(C2=C(O)CC(CC(=O)C(C)(C)C)C2=O)c(C)c1 (stereo not drawn) [2-022] | 5 (Herbicidal ratio of 90% or more (almost completely withered)) | 0 (Herbicidal ratio of 5% or lower (almost no effect)) | 1 (Herbicidal ratio of 5% or higher and lower than 20%) | 1 (Herbicidal ratio of 5% or higher and lower than 20%) | 2 (Herbicidal ratio of 20% or higher and lower than 40%) | 0 (Herbicidal ratio of 5% or lower (almost no effect)) | 0 (Herbicidal ratio of 5% or lower (almost no effect)) | 0 (Herbicidal ratio of 5% or lower (almost no effect)) | 1 (Herbicidal ratio of 5% or higher and lower than 20%) | 2 (Herbicidal ratio of 20% or higher and lower than 40%) | 5 (Herbicidal ratio of 90% or more (almost completely withered)) | 0 (Herbicidal ratio of 5% or lower (almost no effect)) | 0 (Herbicidal ratio of 5% or lower (almost no effect)) | 0 (Herbicidal ratio of 5% or lower (almost no effect)) | 
3 | Cc1cc(C)c(C2=C(O)CC(CC(=O)C3CC3)C2=O)c(C)c1 (stereo not drawn) [2-017] | 5 (Herbicidal ratio of 90% or more (almost completely withered)) | 4 (Herbicidal ratio of 70% or higher and lower than 90%) | 5 (Herbicidal ratio of 90% or more (almost completely withered)) | 5 (Herbicidal ratio of 90% or more (almost completely withered)) | 5 (Herbicidal ratio of 90% or more (almost completely withered)) | 5 (Herbicidal ratio of 90% or more (almost completely withered)) | 0 (Herbicidal ratio of 5% or lower (almost no effect)) | 4 (Herbicidal ratio of 70% or higher and lower than 90%) | 4 (Herbicidal ratio of 70% or higher and lower than 90%) | 3 (Herbicidal ratio of 40% or higher and lower than 70%) | 5 (Herbicidal ratio of 90% or more (almost completely withered)) | 0 (Herbicidal ratio of 5% or lower (almost no effect)) | 4 (Herbicidal ratio of 70% or higher and lower than 90%) | 5 (Herbicidal ratio of 90% or more (almost completely withered)) | 
4 | CCc1cc(Br)cc(C)c1C1=C(O)CC(CC(C)=NOC)C1=O (stereo not drawn) [6-001] | 5 (Herbicidal ratio of 90% or more (almost completely withered)) | 0 (Herbicidal ratio of 5% or lower (almost no effect)) | 5 (Herbicidal ratio of 90% or more (almost completely withered)) | 4 (Herbicidal ratio of 70% or higher and lower than 90%) | 0 (Herbicidal ratio of 5% or lower (almost no effect)) | 5 (Herbicidal ratio of 90% or more (almost completely withered)) |  | 0 (Herbicidal ratio of 5% or lower (almost no effect)) | 2 (Herbicidal ratio of 20% or higher and lower than 40%) | 5 (Herbicidal ratio of 90% or more (almost completely withered)) | 5 (Herbicidal ratio of 90% or more (almost completely withered)) | 0 (Herbicidal ratio of 5% or lower (almost no effect)) | 5 (Herbicidal ratio of 90% or more (almost completely withered)) | 5 (Herbicidal ratio of 90% or more (almost completely withered)) | 
5 | CC(=O)CC1CC(OC(=O)C(C)(C)C)=C(c2c(C)cc(C)cc2C)C1=O (stereo not drawn) [2-018] | 5 (Herbicidal ratio of 90% or more (almost completely withered)) | 0 (Herbicidal ratio of 5% or lower (almost no effect)) | 5 (Herbicidal ratio of 90% or more (almost completely withered)) | 4 (Herbicidal ratio of 70% or higher and lower than 90%) | 5 (Herbicidal ratio of 90% or more (almost completely withered)) | 1 (Herbicidal ratio of 5% or higher and lower than 20%) |  | 4 (Herbicidal ratio of 70% or higher and lower than 90%) | 0 (Herbicidal ratio of 5% or lower (almost no effect)) | 1 (Herbicidal ratio of 5% or higher and lower than 20%) | 2 (Herbicidal ratio of 20% or higher and lower than 40%) | 0 (Herbicidal ratio of 5% or lower (almost no effect)) | 0 (Herbicidal ratio of 5% or lower (almost no effect)) | 5 (Herbicidal ratio of 90% or more (almost completely withered)) | 
6 | CC#Cc1cc(C)c(C2=C(O)CC(CC(C)=NOC)C2=O)c(CC)c1 (mixture of isomers) [6-006] | 5 (Herbicidal ratio of 90% or more (almost completely withered)) | 1 (Herbicidal ratio of 5% or higher and lower than 20%) | 5 (Herbicidal ratio of 90% or more (almost completely withered)) | 5 (Herbicidal ratio of 90% or more (almost completely withered)) | 5 (Herbicidal ratio of 90% or more (almost completely withered)) | 3 (Herbicidal ratio of 40% or higher and lower than 70%) |  | 4 (Herbicidal ratio of 70% or higher and lower than 90%) | 4 (Herbicidal ratio of 70% or higher and lower than 90%) | 3 (Herbicidal ratio of 40% or higher and lower than 70%) | 4 (Herbicidal ratio of 70% or higher and lower than 90%) | 0 (Herbicidal ratio of 5% or lower (almost no effect)) | 1 (Herbicidal ratio of 5% or higher and lower than 20%) | 5 (Herbicidal ratio of 90% or more (almost completely withered)) | 
